Values quoted from earlier work as cited in patent publication US10729778B2, “Carrier-linked treprostinil prodrugs” (Ascendis Pharma A/S, priority 2011, dated 2020).

Conditions: background statement

For CCCCC[C@H](O)CC[C@@H]1[C@H]2Cc3cccc(OCC(=O)O)c3C[C@H]2C[C@H]1O [Treprostinil], the half-life is listed as 4 h.
